From patent US20070010402A1, “Novel herbicides, usage thereof, novel thienopyrimidine derivatives, intermediates of the same, and process for production thereof” (NIHON NOHYAKU CO., LTD.,, priority 2002, published 2007)

Tests used:
Assay in all cases: Field foliar treatment test (Test Example 1)
Format in all cases: in vivo
Conditions in all cases: foliar spray at 1.0- to 2.0-leaf stage, wettable powder, active ingredient 10 g/a, 21st day from the treatment
Ipomoea purpurea = tested on: Ipomoea purpurea
Procedure: (§1) Alluvial soil from a field was put in a resin-made vat having an area of 200 cm^2. After fertilization, the seeds of Echinochloa crus-galli, Brassica juncea, and Ipomoea purpurea were cast on the soil and uniformly covered with the soil. Then, cultivation was continued in a greenhouse, and when the weeds to be tested reached the 1.0- to 2.0-leaf stage, the wettable powder obtained in Formulation Example 1 was diluted with water and a predetermined amount thereof was sprayed uniformly to the weeds by means of a small-sized power pressure spray to give 10 g of the active ingredient per an are. Thereafter, cultivation was further continued in the greenhouse, and the herbicidal effect was examined on the 21st day from the treatment. The results obtained are shown in Table 7 (the compound numbers in Table 7 correspond to those in Table 1 to 6). The herbicidal effect was evaluated in terms of herbicidal rate obtained from the following equation: Herbicidal rate (%)=[1−(Weight of weeds above the ground in a treated plot)/(Weight of weeds above the ground in a non-treated plot)]×100 and was expressed by herbicidal index according to the following criteria. [table]

Brassica juncea = tested on: Brassica juncea
Procedure: as §1

Echinochloa crus-galli = tested on: Echinochloa crus-galli
Procedure: as §1

| Compound | Herbicidal effect Ipomoea purpurea (herbicidal index) (Ipomoea purpurea) | Herbicidal effect Brassica juncea (herbicidal index) (Brassica juncea) | Herbicidal effect Echinochloa crus-galli (herbicidal index) (Echinochloa crus-galli) |
| --- | --- | --- | --- |
| Cc1cc2c(-c3ccccc3OC(F)(F)F)nc(Cl)nc2s1 [5-31] | 5 (91 to 100) | 5 (91 to 100) | 4 (71 to 90) |
| CCCOc1nc(-c2cccc(C(F)(F)F)c2)c2cc(C)sc2n1 [6-25] | 5 (91 to 100) | 5 (91 to 100) | 4 (71 to 90) |
| CCCOc1nc(-c2cccc(OC(F)(F)F)c2)c2cc(C)sc2n1 [6-35] | 5 (91 to 100) | 5 (91 to 100) | 5 (91 to 100) |
| CCCOc1nc(-c2cccc(SC(F)(F)F)c2)c2cc(C)sc2n1 [6-39] | 5 (91 to 100) | 4 (71 to 90) | 5 (91 to 100) |
| CCCOc1nc(-c2cccc(OC(F)F)c2)c2cc(C)sc2n1 [6-40] | 5 (91 to 100) | 5 (91 to 100) | 4 (71 to 90) |
| Cc1cc2c(-c3cccc(Br)c3)nc(OC3CCCC3)nc2s1 [6-61] | 4 (71 to 90) | 4 (71 to 90) | 4 (71 to 90) |
| Cc1cc2c(-c3cccc(C(F)(F)F)c3)nc(OC3CCCC3)nc2s1 [6-80] | 5 (91 to 100) | 5 (91 to 100) | 5 (91 to 100) |
| Cc1cc2c(-c3ccc(F)c(C(F)(F)F)c3)nc(OC3CCCC3)nc2s1 [6-83] | 5 (91 to 100) | 4 (71 to 90) | 5 (91 to 100) |
| Cc1cc2c(-c3cccc(OC(F)(F)F)c3)nc(OC3CCCC3)nc2s1 [6-85] | 5 (91 to 100) | 4 (71 to 90) | 5 (91 to 100) |
| C#CC(C)Oc1nc(-c2cccc(C(F)(F)F)c2)c2cc(C)sc2n1 (stereo not drawn) [6-90] | 5 (91 to 100) | 5 (91 to 100) | 5 (91 to 100) |
| C=CCCOc1nc(-c2cccc(C(F)(F)F)c2)c2cc(C)sc2n1 [6-92] | 4 (71 to 90) | 5 (91 to 100) | 5 (91 to 100) |
| Cc1cc2c(-c3cccc(C(F)(F)F)c3)nc(OCCF)nc2s1 [6-96] | 5 (91 to 100) | 5 (91 to 100) | 4 (71 to 90) |
| Cc1cc2c(-c3cccc(C(F)(F)F)c3)nc(OCC(F)(F)F)nc2s1 [6-97] | 5 (91 to 100) | 5 (91 to 100) | 5 (91 to 100) |
| Cc1cc2c(-c3cccc(C(F)(F)F)c3)nc(OCC(Cl)(Cl)Cl)nc2s1 [6-98] | 5 (91 to 100) | 4 (71 to 90) | 5 (91 to 100) |
| Cc1cc2c(-c3cccc(OC(F)(F)F)c3)nc(OCC(F)F)nc2s1 [6-109] | 4 (71 to 90) | 5 (91 to 100) | 5 (91 to 100) |
| Cc1cc2c(-c3cccc(OC(F)(F)F)c3)nc(OCC(F)(F)C(F)F)nc2s1 [6-112] | 5 (91 to 100) | 5 (91 to 100) | 5 (91 to 100) |
| Cc1cc2c(-c3cccc(SC(F)(F)F)c3)nc(OCC(F)(F)F)nc2s1 [6-115] | 5 (91 to 100) | 5 (91 to 100) | 5 (91 to 100) |
| Cc1cc2c(-c3cccc(OC(F)F)c3)nc(OCC(F)(F)C(F)F)nc2s1 [6-125] | 5 (91 to 100) | 5 (91 to 100) | 5 (91 to 100) |
| COCC(C)Oc1nc(-c2cccc(C(F)(F)F)c2)c2cc(C)sc2n1 (stereo not drawn) [6-142] | 5 (91 to 100) | 4 (71 to 90) | 5 (91 to 100) |
| Cc1cc2c(-c3cccc(C(F)(F)F)c3)nc(OC3CCOC3)nc2s1 (stereo not drawn) [6-184] | 5 (91 to 100) | 4 (71 to 90) | 5 (91 to 100) |
| Cc1cc2c(-c3cccc(C(F)(F)F)c3)nc(OCc3ccco3)nc2s1 [6-187] | 5 (91 to 100) | 5 (91 to 100) | 4 (71 to 90) |
| Cc1cc2c(-c3cccc(C(F)(F)F)c3)nc(-n3cccn3)nc2s1 [6-192] | 5 (91 to 100) | 4 (71 to 90) | 4 (71 to 90) |
| Cc1cc2c(-c3cccc(C(F)(F)F)c3)nc(-n3cncn3)nc2s1 [6-193] | 5 (91 to 100) | 4 (71 to 90) | 4 (71 to 90) |
| Cc1cc2c(-c3cccc(C(F)(F)F)c3)nc(-n3ccnc3C)nc2s1 [6-194] | 5 (91 to 100) | 5 (91 to 100) | 4 (71 to 90) |
| Cc1cc2c(Oc3cccc(OC(F)(F)F)c3)nc(-n3ccc(C(F)(F)F)n3)nc2s1 [6-202] | 5 (91 to 100) | 4 (71 to 90) | 4 (71 to 90) |
| Cc1cc2c(-c3ccc(F)c(C(F)(F)F)c3)nc(OCC(F)(F)F)nc2s1 [6-207] | 5 (91 to 100) | 5 (91 to 100) | 5 (91 to 100) |
| Cc1cccc(-c2nc(OC(C)C)nc3sc(C)cc23)c1 [6-215] | 5 (91 to 100) | 5 (91 to 100) | 5 (91 to 100) |
| Cc1cc2c(-c3ccccc3C)nc(OCC(F)(F)F)nc2s1 [6-217] | 5 (91 to 100) | 5 (91 to 100) | 4 (71 to 90) |
| Cc1cc2nc(OCC(F)(F)F)nc(-c3cccc(OC(F)(F)F)c3)c2s1 [6-235] | 5 (91 to 100) | 5 (91 to 100) | 5 (91 to 100) |
| C#CC(C)Oc1nc(-c2cccc(OC(F)(F)F)c2)c2sc(C)cc2n1 (stereo not drawn) [6-236] | 5 (91 to 100) | 5 (91 to 100) | 5 (91 to 100) |
